# Laboratory results taken from ChEMBL document CHEMBL1138979, “From pyrroles to pyrrolo[1,2-a]pyrazinones: a new class of mGluR1 antagonists” (Bioorg Med Chem Lett, 2006).
# Key:
# [1] = target: T1, Metabotropic glutamate receptor 1 (Rattus norvegicus, UniProt P23385); experiment: Inhibition of rat mGluR1a in CHO cells by CDP-DAG accumulation method; format: functional, cell-based
# [2] = target: T1, Metabotropic glutamate receptor 1; experiment: Inhibition of rat mGluR1a in CHO cells by CDP-DAG accumulation method upto 100 uM; format: functional, cell-based
# T1 sequence (P23385 whole entry): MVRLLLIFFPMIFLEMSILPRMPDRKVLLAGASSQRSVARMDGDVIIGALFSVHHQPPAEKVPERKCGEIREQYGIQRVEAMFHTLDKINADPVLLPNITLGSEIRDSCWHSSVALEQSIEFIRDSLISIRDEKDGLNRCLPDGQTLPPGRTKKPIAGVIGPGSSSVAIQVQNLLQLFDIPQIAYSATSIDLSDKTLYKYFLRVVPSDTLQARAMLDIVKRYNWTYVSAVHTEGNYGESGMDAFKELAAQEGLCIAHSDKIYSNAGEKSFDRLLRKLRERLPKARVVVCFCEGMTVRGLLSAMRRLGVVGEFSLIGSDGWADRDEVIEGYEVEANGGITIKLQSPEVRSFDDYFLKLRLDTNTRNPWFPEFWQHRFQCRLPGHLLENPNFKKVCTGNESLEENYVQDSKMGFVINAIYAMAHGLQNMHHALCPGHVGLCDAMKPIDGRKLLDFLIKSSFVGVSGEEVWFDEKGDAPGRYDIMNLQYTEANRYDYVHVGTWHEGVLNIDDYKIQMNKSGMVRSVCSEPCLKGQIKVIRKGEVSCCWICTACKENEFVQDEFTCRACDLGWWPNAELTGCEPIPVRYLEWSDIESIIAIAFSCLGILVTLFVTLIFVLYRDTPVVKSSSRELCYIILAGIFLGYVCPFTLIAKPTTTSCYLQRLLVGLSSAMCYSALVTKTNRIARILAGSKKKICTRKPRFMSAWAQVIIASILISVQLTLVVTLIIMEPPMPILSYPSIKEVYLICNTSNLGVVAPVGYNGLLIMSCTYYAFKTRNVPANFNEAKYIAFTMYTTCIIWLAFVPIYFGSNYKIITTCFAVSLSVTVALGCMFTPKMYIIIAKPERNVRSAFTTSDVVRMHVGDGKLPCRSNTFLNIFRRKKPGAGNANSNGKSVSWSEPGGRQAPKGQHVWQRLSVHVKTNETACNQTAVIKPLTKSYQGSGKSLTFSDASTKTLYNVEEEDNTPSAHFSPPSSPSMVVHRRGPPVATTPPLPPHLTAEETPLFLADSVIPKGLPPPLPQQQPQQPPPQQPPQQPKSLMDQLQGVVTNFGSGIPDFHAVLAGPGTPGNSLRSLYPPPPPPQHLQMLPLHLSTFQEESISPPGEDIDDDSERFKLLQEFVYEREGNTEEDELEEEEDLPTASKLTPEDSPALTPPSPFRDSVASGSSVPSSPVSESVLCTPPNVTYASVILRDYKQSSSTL
SMILES,IC50 [1] [nM],IC50 [2]
Cc1c(C(=O)OC(C)C(C)(C)C)cn2c1C(=O)N(CCNC(=O)OC(C)(C)C)CC2 (stereo unspecified),398,–
Cc1c(C(=O)OC(C)C(C)(C)C)cn2c1C(=O)N(Cc1ccccc1)CC2 (stereo unspecified),251,–
C=CCN1CCn2cc(C(=O)OC(C)C(C)(C)C)c(C)c2C1=O (stereo unspecified),20,–
Cc1c(C(=O)OC(C)C(C)(C)C)cn2c1C(=O)N(N1CCOCC1)CC2 (stereo unspecified),3160,–
Cc1c(C(=O)OC(C)C(C)(C)C)cn2c1C(=O)N(CC(F)F)CC2 (stereo unspecified),25.1,–
Cc1c(C(=O)OC(C)C(C)(C)C)cn2c1C(=O)N(CCCN1C(=O)c3ccccc3C1=O)CC2 (stereo unspecified),15.8,–
Cc1c(C(=O)OC(C)C(C)(C)C)cn2c1C(=O)NCC2 (stereo unspecified),–,Not Active
Cc1c(C(=O)OC(C)C(C)(C)C)cn2c1C(=O)N(CC1CC1)CC2 (stereo unspecified),20,–

# The next lines start with the values.
IC50 [1] [nM],IC50 [2],SMILES
3160,–,Cc1c(C(=O)OC(C)C(C)(C)C)cn2c1C(=O)N(CCCN(C)C(=O)c1ccncc1)CC2 (stereo unspecified)
398,–,CCNC(=O)NCCCN1CCn2cc(C(=O)OC(C)C(C)(C)C)c(C)c2C1=O (stereo unspecified)
251,–,COCCN1CCn2cc(C(=O)OC(C)C(C)(C)C)c(C)c2C1=O (stereo unspecified)
501,–,CC(=O)NCCCN1CCn2cc(C(=O)OC(C)C(C)(C)C)c(C)c2C1=O (stereo unspecified)
20,–,Cc1c(C(=O)OC(C)C(C)(C)C)cn2c1C(=O)N(CCF)CC2 (stereo unspecified)
398,–,Cc1c(C(=O)OC(C)C(C)(C)C)cn2c1C(=O)N(CCCNC(=O)c1ccncc1)CC2 (stereo unspecified)
–,Not Active,Cc1c(C(=O)OC(C)C(C)(C)C)cn2c1C(=O)N(CCCN)CC2 (stereo unspecified)
39.8,–,CCCN1CCn2cc(C(=O)OC(C)C(C)(C)C)c(C)c2C1=O (stereo unspecified)
